For this assay, the system named is cramps induced by acetic acid in the mouse. Briefly: animal or person. It counts as in vivo. The protocol: The analgesic effect of a nefopam-celecoxib combination was investigated in the model of abdominal cramps induced in the mouse by intraperitoneal administration of acetic acid. This model of pain induced by a chemical substance corresponds to inflammatory, visceral and acute pain.
Male CD1 mice (bred: C. River) weighing between 25 and 30 grams are used after an acclimatization for at least 7 days in the animal house (temp.=22±2; humidity=50±20%; food SAFE “A04”; nyctohemeral cycle: 12 h/12 h (light: 7 h/19 h−darkness: 19 h/7 h)). • 2. Protocol
On the day of the experiment, the non-fasting mice are weighed, marked and distributed at random in batches of 10. The acetic acid solution (Sigma) is prepared at 0.6%, or 60 mg of acetic acid in 10 ml of 0.9% NaCl.
At t=0, the mouse receives celecoxib by the oral route. At t=30 min, the mouse is administered nefopam or its liquid vehicle by the subcutaneous route. At t=60 min, the acetic acid is injected intraperitoneally (0.1 ml/10 g).
The number of abdominal cramps is counted from 5 to 20 minutes after injection of acetic acid. Frank abdominal cramps characterized by stretching of the hindpaws and/or hollowing of the flanks with twisting are regarded as positive. • 3. Products
Nefopam hydrochloride (Biocodex, batch 38) (called simply nefopam hereunder) is dissolved in distilled water or 0.9% NaCl. Celecoxib (Celebrex® capsules) is suspended in Tween 80 at 1%. • 4. Statistical Analysis
The test used is an analysis of variance for 3 or more groups and a Student t-test for 2 groups. Then the treated group or groups that differ from the control group are determined. […] At least 10 mice are used for each dose, and at least 3 doses are used for determining the dose-response curve. The dose that produces 50% of antinociceptive effect (50% decrease in number of cramps) is calculated by a standard linear regression analysis of the dose-response curve.
The interaction is evaluated by an isobolographic analysis of the co-administration of a combination of doses at fixed ratio according to Tallarida (2000) op. cit., Tallarida et al. (1989) Life Sci. 45:947-961 and Tallarida et al. (1997) Life Sci. 61:PL417-PL425. The isobologram is constructed by joining the ED50 of celecoxib with that of nefopam to obtain the line of additivity. The ED50 of the combination is determined by linear regression analysis of the dose-response curve, and it is compared by a t-test with a theoretical additive ED50 obtained using the PharmToolsPro software.

Each structure is given as a SMILES string.

Consider `Cc1ccc(-c2cc(C(F)(F)F)nn2-c2ccc(S(N)(=O)=O)cc2)cc1` [Celecoxib, celecoxib], for which the ED50 (Mus musculus, read-out: ED50 (dose producing 50% decrease in number of cramps)) was 40.2 ± 8.06 mg/kg. Further, the “% variation of number of cramps” value is, setting by setting: (celecoxib 10 mg/kg oral) −9%; (celecoxib 20 mg/kg oral) −42%; (celecoxib 50 mg/kg oral) −39%; (celecoxib 75 mg/kg oral) −72%; (celecoxib 150 mg/kg oral) −90%. Besides, the “Number of cramps (mean ± SEM)” value came to 28.2 ± 2.9 (celecoxib 10 mg/kg oral); 18.1 ± 3.2 (celecoxib 20 mg/kg oral); 18.9 ± 2.2 (celecoxib 50 mg/kg oral); 8.6 ± 2.1 (celecoxib 75 mg/kg oral); 3.2 ± 1.0 (celecoxib 150 mg/kg oral).

These data come from patent US8598221B2 (priority 2009, dated 2013).
